Measurements published in ChEMBL document CHEMBL3044863, “Optimization of biological (Phasmarhabditis hermaphrodita) and chemical (iron phosphate and metaldehyde) slug control” (Crop Prot, 2009).
Calls of active or inactive are those of the source. No cut-off for these calls is given here.

Columns and labels:
Format in all cases: functional, organism-based
Arion subfuscus [1] = assay: Molluscicidal activity against Arion subfuscus in Chinese cabbage at 0.8 g/m2 after 21 to 42 days by miniplot trial analysis in presence of 135 mm rainfall
Arion subfuscus [2] = assay: Molluscicidal activity against Arion subfuscus in Chinese cabbage at 0.8 g/m2 after 7 to 42 days by miniplot trial analysis in presence of 65.4 mm rainfall
Arion subfuscus [3] = assay: Molluscicidal activity against Arion subfuscus in Chinese cabbage at 0.8 g/m2 after 7 to 14 days by miniplot trial analysis in presence of 135 mm rainfall
Deroceras reticulatum [4] = assay: Molluscicidal activity against Deroceras reticulatum in Chinese cabbage at 0.8 g/m2 after 7 to 28 days by miniplot trial analysis in presence of 65.8 mm rainfall
Arion subfuscus [5] = assay: Molluscicidal activity against Arion subfuscus in Chinese cabbage at 0.8 g/m2 after 21 to 28 days by miniplot trial analysis in presence of 65.8 mm rainfall
Arion subfuscus [6] = assay: Molluscicidal activity against Arion subfuscus in Chinese cabbage at 0.8 g/m2 after 7 to 42 days
Arion subfuscus [7] = assay: Molluscicidal activity against Arion subfuscus in Chinese cabbage at 0.8 g/m2 after 7 to 42 days by miniplot trial analysis in presence of 17 mm rainfall
Deroceras reticulatum [8] = assay: Molluscicidal activity against Deroceras reticulatum in Chinese cabbage at 0.8 g/m2 after 7 to 42 days by miniplot trial analysis in presence of 65.4 mm rainfall
Arion subfuscus [9] = assay: Molluscicidal activity against Arion subfuscus assessed as reduction of slug number at 0.8 g/m2 after 42 days
Arion subfuscus [10] = assay: Molluscicidal activity against Arion subfuscus in Chinese cabbage at 0.8 g/m2 after 7 days by miniplot trial analysis in presence of 135 mm rainfall
Deroceras reticulatum [11] = assay: Molluscicidal activity against Deroceras reticulatum in Chinese cabbage at 0.8 g/m2 after 7 days by miniplot trial analysis in presence of 135 mm rainfall
Deroceras reticulatum [12] = assay: Molluscicidal activity against Deroceras reticulatum in Chinese cabbage at 0.8 g/m2 after 7 to 14 days by miniplot trial analysis in presence of 135 mm rainfall
Deroceras panormitanum = assay: Molluscicidal activity against Deroceras panormitanum assessed as reduction of slug number at 0.8 g/m2 after 42 days
Deroceras reticulatum [13] = assay: Molluscicidal activity against Deroceras reticulatum in Chinese cabbage at 0.8 g/m2 after 7 to 42 days
Deroceras reticulatum [14] = assay: Molluscicidal activity against Deroceras reticulatum in Chinese cabbage at 0.8 g/m2 after 7 to 42 days by miniplot trial analysis in presence of 17 mm rainfall
Arion subfuscus [15] = assay: Molluscicidal activity against Arion subfuscus in Chinese cabbage at 0.8 g/m2 after 7 to 14 days by miniplot trial analysis in presence of 65.8 mm rainfall
Deroceras reticulatum [16] = assay: Molluscicidal activity against Deroceras reticulatum assessed as reduction of slug number at 0.8 g/m2 after 42 days
Deroceras reticulatum [17] = assay: Molluscicidal activity against Deroceras reticulatum in Chinese cabbage at 0.8 g/m2 after 21 to 42 days by miniplot trial analysis in presence of 135 mm rainfall
Arion subfuscus [18] = assay: Molluscicidal activity against Arion subfuscus in Chinese cabbage at 5 g/m2 after 21 to 28 days by miniplot trial analysis in presence of 65.8 mm rainfall
Arion subfuscus [19] = assay: Molluscicidal activity against Arion subfuscus in Chinese cabbage at 5 g/m2 after 7 to 42 days by miniplot trial analysis in presence of 17 mm rainfall
Deroceras reticulatum [20] = assay: Molluscicidal activity against Deroceras reticulatum in Chinese cabbage at 5 g/m2 after 7 to 28 days by miniplot trial analysis in presence of 65.8 mm rainfall
Deroceras reticulatum [21] = assay: Molluscicidal activity against Deroceras reticulatum in Chinese cabbage at 5 g/m2 after 7 to 42 days by miniplot trial analysis in presence of 17 mm rainfall
Arion subfuscus [22] = assay: Molluscicidal activity against Arion subfuscus in Chinese cabbage at 5 g/m2 after 7 to 14 days by miniplot trial analysis in presence of 65.8 mm rainfall

Compound: CC1OC(C)OC(C)OC(C)O1 (stereo not drawn)
- Activity (Arion subfuscus [1]): Active
- Activity (Arion subfuscus [2]): Active
- Activity (Arion subfuscus [3]): Active
- Activity (Deroceras reticulatum [4]): Active
- Activity (Arion subfuscus [5]): inactive
- Activity (Arion subfuscus [6]): Active
- Activity (Arion subfuscus [7]): Active
- Activity (Deroceras reticulatum [8]): Active
- Activity (Arion subfuscus [9]): inactive
- Activity (Arion subfuscus [10]): Active
- Activity (Deroceras reticulatum [11]): Active
- Activity (Deroceras reticulatum [12]): Active
- Activity (Deroceras panormitanum): inactive
- Activity (Deroceras reticulatum [13]): Active
- Activity (Deroceras reticulatum [14]): Active
- Activity (Arion subfuscus [15]): Active
- Activity (Deroceras reticulatum [16]): inactive
- Activity (Deroceras reticulatum [17]): Active

Compound: IRON PHOSPHATE
- Activity (Arion subfuscus [18]): inactive
- Activity (Arion subfuscus [19]): Active
- Activity (Deroceras reticulatum [20]): Active
- Activity (Deroceras reticulatum [21]): Active
- Activity (Arion subfuscus [22]): Active
